The source of these data is PubChem BioAssay AID292 (DTP/NCI, 2004).

Values joined by “and” are separate entries in the source; they are usually repeats but may differ in a detail not shown here. Equal entries are not always repeated. Inconclusive results and toxic doses are left out.

The assay deals with B6C3F1 mice, ip Sarcoma M5076, median survival T/C. Put plainly: NCI In Vivo Anticancer Drug Screen. Data for tumor model Sarcoma M5076 (intraperitoneal) in B6C3F1 mice. The conditions noted are these: endpoint: median survival time, schedule: Q04DX004 (ip), higher = longer survival. The procedure, abridged:
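Tumour cells were transplanted into mice, compound or vehicle was given, survival of both groups was followed, and the treated figure was expressed over the control figure.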

[1] abbreviates: dose: 6.25 mg/kg/injection, vehicle: Klucel (hydroxypropylcellulose) (HPC).
Setting [2] is: dose: 12.5 mg/kg/injection, vehicle: Klucel (hydroxypropylcellulose) (HPC).
Where [3] appears, read: dose: 25.0 mg/kg/injection, vehicle: Klucel (hydroxypropylcellulose) (HPC).
Setting [4] is: dose: 50.0 mg/kg/injection, vehicle: Klucel (hydroxypropylcellulose) (HPC).
[5] abbreviates: dose: 100.0 mg/kg/injection, vehicle: Klucel (hydroxypropylcellulose) (HPC).
Setting [6] is: dose: 75.0 mg/kg/injection, vehicle: saline.
[7] abbreviates: dose: 150.0 mg/kg/injection, vehicle: saline.
Setting [8] is: dose: 300.0 mg/kg/injection, vehicle: saline.
[9] abbreviates: dose: 600.0 mg/kg/injection, vehicle: saline.
Setting [10] is: dose: 1200.0 mg/kg/injection, vehicle: saline.

In the case of `C[CH2][Sn]([CH2]C)([CH2]C(=O)OC)[CH2]C(=O)OC`, the T/C is, setting by setting: (dose: 1.5 mg/kg/injection, vehicle: saline with Tween-80) 96 % of control; (dose: 3.0 mg/kg/injection, vehicle: saline with Tween-80) 93 % of control; (dose: 6.0 mg/kg/injection, vehicle: saline with Tween-80) 95 % of control; (dose: 12.0 mg/kg/injection, vehicle: saline with Tween-80) 92 % of control.

In the case of `N=C(N)Sc1cc(O)ccc1O`, the T/C (dose: 43.75 mg/kg/injection, vehicle: saline with Tween-80) is 110 % of control; the T/C (dose: 87.5 mg/kg/injection, vehicle: saline with Tween-80) was 109 % of control; the T/C (dose: 175.0 mg/kg/injection, vehicle: saline with Tween-80) is 111 % of control; the T/C (dose: 350.0 mg/kg/injection, vehicle: saline with Tween-80) was 110 % of control.

Regarding `C=C1C(O)C2(O)OCC34C(CC5C(C)=CC(=O)C(O)C5(C)C23)OC(=O)C(OC(=O)C/C=C/CCCCCCCC)C14` (centres undefined), the T/C is 96 % of control (dose: 2.0 mg/kg/injection, vehicle: saline + alcohol); 116 % of control (dose: 2.88 mg/kg/injection, vehicle: saline + alcohol); 112 % of control (dose: 2.89 mg/kg/injection, vehicle: saline + alcohol); 107 % of control (dose: 4.0 mg/kg/injection, vehicle: saline + alcohol); 110 % of control (dose: 4.8 mg/kg/injection, vehicle: saline + alcohol); 124 % of control (dose: 13.33 mg/kg/injection, vehicle: saline + alcohol). Besides, the T/C (dose: 16.0 mg/kg/injection, vehicle: saline + alcohol) was 114 % of control.

With `CCC1=C(c2cccc(OC(C)=O)c2)C(C)c2ccc(OC(C)=O)cc21` (centres undefined), the T/C reads like this: under setting [1], 93 % of control; under setting [2], 93 % of control; under setting [3], 100 % of control; under setting [4], 116 % of control; under setting [5], 105 % of control; (dose: 200.0 mg/kg/injection, vehicle: Klucel (hydroxypropylcellulose) (HPC)) 91 % of control.

As for `CCOC(=O)Nc1cc2c(c(N)n1)N=C(c1ccc3ccccc3c1)CN2`, the T/C reads like this: (dose: 3.75 mg/kg/injection, vehicle: saline with Tween-80) 110 % of control; (dose: 7.5 mg/kg/injection, vehicle: saline with Tween-80) 108 % of control; (dose: 15.0 mg/kg/injection, vehicle: saline with Tween-80) 120 % of control; (dose: 30.0 mg/kg/injection, vehicle: saline with Tween-80) 111 % of control.

Consider `CCOC(=O)c1cc(-c2ccccc2)c(=O)c(OC)nc1-c1ccccc1`, for which the T/C (dose: 18.75 mg/kg/injection, vehicle: saline with Tween-80) is 87 % of control; the T/C (dose: 37.5 mg/kg/injection, vehicle: saline with Tween-80) was 95 % of control; the T/C (dose: 75.0 mg/kg/injection, vehicle: saline with Tween-80) was 93 % of control; the T/C (dose: 150.0 mg/kg/injection, vehicle: saline with Tween-80) was 90 % of control.

Turning to `C#CCN(Cc1ccc2nc(N)[nH]c(=O)c2c1)c1ccc(C(=O)NC(CCC(=O)O)C(=O)O)cc1` (centres undefined), the T/C reads like this: (dose: 25.0 mg/kg/injection, vehicle: water) 98 % of control; (dose: 50.0 mg/kg/injection, vehicle: water) 98 % of control and 118 % of control; (dose: 100.0 mg/kg/injection, vehicle: water) 120 % of control; (dose: 200.0 mg/kg/injection, vehicle: water) 162 % of control; (dose: 400.0 mg/kg/injection, vehicle: water) 152 % of control and 175 % of control.

`NNC(=O)c1ccc(OCc2nc3ccccc3[nH]2)cc1`: the T/C is, setting by setting: (dose: 25.0 mg/kg/injection, vehicle: saline with Tween-80) 99 % of control; (dose: 50.0 mg/kg/injection, vehicle: saline with Tween-80) 102 % of control; (dose: 100.0 mg/kg/injection, vehicle: saline with Tween-80) 101 % of control; (dose: 200.0 mg/kg/injection, vehicle: saline with Tween-80) 106 % of control; (dose: 400.0 mg/kg/injection, vehicle: saline with Tween-80) 97 % of control.

Turning to `COc1ccc(-c2nnc3cc(C)n4nnnc4n23)cc1OC`, the T/C is 99 % of control (dose: 18.75 mg/kg/injection, vehicle: Klucel (hydroxypropylcellulose) (HPC)); 94 % of control (dose: 37.5 mg/kg/injection, vehicle: Klucel (hydroxypropylcellulose) (HPC)); 98 % of control (dose: 75.0 mg/kg/injection, vehicle: Klucel (hydroxypropylcellulose) (HPC)); 99 % of control (dose: 150.0 mg/kg/injection, vehicle: Klucel (hydroxypropylcellulose) (HPC)); 91 % of control (dose: 300.0 mg/kg/injection, vehicle: Klucel (hydroxypropylcellulose) (HPC)).

For the compound `NC(=O)C1=NOC(C(N)=O)C1C1OC(CO)C(O)C1O` (centres undefined), the T/C by setting is: (dose: 37.5 mg/kg/injection, vehicle: water) 100 % of control; (dose: 75.0 mg/kg/injection, vehicle: water) 98 % of control; (dose: 150.0 mg/kg/injection, vehicle: water) 103 % of control; (dose: 300.0 mg/kg/injection, vehicle: water) 106 % of control; (dose: 600.0 mg/kg/injection, vehicle: water) 100 % of control.

As for `NC(Cn1ccc(=O)c(O)c1)C(=O)O` (centres undefined), the T/C under setting [6] was 100 % of control; the T/C under setting [7] was 109 % of control; the T/C under setting [8] was 103 % of control; the T/C under setting [9] was 118 % of control; the T/C under setting [10] was 113 % of control.

As for `COc1cc2c(c(OC)c1OC)-c1cccc(=O)cc1C(NC(C)=O)CC2` (centres undefined), the T/C (dose: 3.15 mg/kg/injection, vehicle: Klucel (hydroxypropylcellulose) (HPC)) was 98 % of control; the T/C under setting [1] is 113 % of control; the T/C under setting [2] is 107 % of control; the T/C under setting [3] was 116 % of control and 117 % of control; the T/C (dose: 36.0 mg/kg/injection, vehicle: Klucel (hydroxypropylcellulose) (HPC)) was 114 % of control; the T/C under setting [4] was 115 % of control. Moreover, the T/C runs as follows: (dose: 60.0 mg/kg/injection, vehicle: Klucel (hydroxypropylcellulose) (HPC)) 113 % of control; under setting [5], 110 % of control and 121 % of control; (dose: 166.67 mg/kg/injection, vehicle: Klucel (hydroxypropylcellulose) (HPC)) 107 % of control; (dose: 277.78 mg/kg/injection, vehicle: Klucel (hydroxypropylcellulose) (HPC)) 111 % of control.

As to `OCC(O)C(O)C(O)C(O)CO` (centres undefined), the T/C was 96 % of control and 102 % of control under setting [6]; 111 % of control under setting [7]; 96 % of control and 100 % of control under setting [8]; 92 % of control and 101 % of control under setting [9]; 101 % of control and 106 % of control under setting [10].
